The values below come from patent US8153601B2, “Azithromycin-containing aqueous pharmaceutical composition and a method for the preparation of the same” (Wakamoto Pharmaceutical Co., Ltd., priority 2004, dated 2012).

SMILES strings stand for the structures.

The data set can be described thus: Stability of azithromycin during the preparation steps (survival rate of AZT after preparation, HPLC). It is filed as physicochemical. The following applies: pH of the azithromycin-containing aqueous solution less than 4.0. The protocol: Stability of the azithromycin-containing aqueous pharmaceutical compositions prepared in the above Examples and Comparative Examples were evaluated in terms of azithromycin concentration in the composition.
The compositions (Examples 1 to 8 and Comparative Examples 1 and 2) were packed in glass vial, sealed with a lid, and stored at 60° C. for one and two weeks. Then, azithromycin concentration in the composition just after packed in the glass vial and after the storage at 60° C. was determined by HPLC. Stability was evaluated as follows.
First, the azithromycin content added was compared with the azithromycin content in the composition just after packed in the glass vial to evaluate stability of azithromycin during the preparation steps. This is expressed by a survival rate of AZT after preparation wherein AZT means azithromycin.
The same procedures in Test Example 1 were repeated to evaluate stability of the compositions of Examples 9 to 12 and Comparative Example 3.
The similar procedures to Test Example 1 were repeated to evaluate stability of the compositions of Examples 18 to 20.

With `CC[C@H]1OC(=O)[C@H](C)[C@@H](O[C@H]2C[C@@](C)(OC)[C@@H](O)[C@H](C)O2)[C@H](C)[C@@H](O[C@@H]2O[C@H](C)C[C@H](N(C)C)[C@H]2O)[C@](C)(O)C[C@@H](C)CN(C)[C@H](C)[C@@H](O)[C@]1(C)O` [azithromycin], the “decomposition of azithromycin in aqueous solution” value is listed as “decomposed”.
